Measured values reported in US7943629B2, “Sulphimides as protein kinase inhibitors” (Bayer Schering Pharma AG, priority 2006, dated 2011).

Legend:
Aurora-C = molecular target: T1, Aurora-C (Homo sapiens, UniProt Q9UQB9); test: Aurora-C kinase assay; assay type: biochemical; settings: for IC50: 3 μM ATP, 22° C., 90 min
T1 construct: made in house; host or cells: transiently transfected HEK293 cells
T1 sequence (Q9UQB9 1-309): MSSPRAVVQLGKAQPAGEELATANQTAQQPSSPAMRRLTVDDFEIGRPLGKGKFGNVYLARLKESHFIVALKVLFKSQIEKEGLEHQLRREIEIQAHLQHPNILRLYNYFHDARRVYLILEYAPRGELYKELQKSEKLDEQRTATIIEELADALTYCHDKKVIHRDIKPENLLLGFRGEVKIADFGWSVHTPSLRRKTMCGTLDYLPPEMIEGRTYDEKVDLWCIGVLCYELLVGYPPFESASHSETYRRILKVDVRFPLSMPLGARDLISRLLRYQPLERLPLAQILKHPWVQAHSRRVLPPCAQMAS
Procedure: Recombinant Aurora-C protein was expressed in transiently transfected HEK293 cells and then purified. The kinase substrate used was the biotinylated peptide having the amino acid sequence biotin-FMRLRRLSTKYRT, which was purchased from Jerini AG in Berlin.
Aurora-C [5 nM in the test mixture, test volume 5 μl] was incubated in the presence of various concentrations of test substances (0 μM and 10 measurement points within the range 0.001-20 μM in duplicate) in assay buffer [25 mM HEPES pH 7.4, 0.5 mM MnCl2, 0.1 mM Na ortho-vanadate, 2.0 mM dithiothreitol, 0.05% bovine serum albumin (BSA), 0.01% Triton X-100, 3 μM adenosine trisphosphate (ATP), 0.67 nCi/μl gamma-^33P-ATP, 2.0 μM substrate peptide biotin-FMRLRRLSTKYRT, 1.0% dimethyl sulphoxide] at 22° C. for 90 min. The reaction was stopped by adding 12.5 μl of an EDTA/detection solution [16 mM EDTA, 40 mM ATP, 0.08% Triton X-100, 4 mg/ml PVT streptavidin SPA beads (from Amersham)]. After incubation for 10 minutes, the SPA beads were pelleted by centrifugation at 1000×G for 10 minutes. Measurement took place in a PerkinElmer Topcount scintillation counter. The measured data were normalized to 0% inhibition (enzyme reaction without inhibitor) and 100% inhibition (enzyme reaction in the presence of 0.1 μM staurosporine (from Sigma)). The IC50 values were determined by means of a 4-parameter fit using the company's own software.

CDK1/CycB = molecular target: T2, CDK1/CycB (Homo sapiens, UniProt P06493); test: CDK1/CycB kinase assay; assay type: biochemical; settings: 0.5 μM ATP, histone IIIS, 22° C., 10 min
T2 construct: GST; purchased ProQinase GmbH, Freiburg; host or cells: baculovirus-infected insect cells (Sf9)
T2 sequence (P06493 whole entry): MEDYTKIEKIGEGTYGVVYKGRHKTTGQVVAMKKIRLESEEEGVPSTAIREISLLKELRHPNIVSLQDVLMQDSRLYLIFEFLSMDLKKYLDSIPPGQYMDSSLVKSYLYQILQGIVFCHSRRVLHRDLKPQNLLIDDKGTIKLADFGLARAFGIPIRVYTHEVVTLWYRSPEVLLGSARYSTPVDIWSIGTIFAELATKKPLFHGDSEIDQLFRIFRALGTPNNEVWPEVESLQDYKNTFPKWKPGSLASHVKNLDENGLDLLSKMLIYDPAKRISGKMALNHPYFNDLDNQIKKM
T2 sequence (P14635 whole entry partner): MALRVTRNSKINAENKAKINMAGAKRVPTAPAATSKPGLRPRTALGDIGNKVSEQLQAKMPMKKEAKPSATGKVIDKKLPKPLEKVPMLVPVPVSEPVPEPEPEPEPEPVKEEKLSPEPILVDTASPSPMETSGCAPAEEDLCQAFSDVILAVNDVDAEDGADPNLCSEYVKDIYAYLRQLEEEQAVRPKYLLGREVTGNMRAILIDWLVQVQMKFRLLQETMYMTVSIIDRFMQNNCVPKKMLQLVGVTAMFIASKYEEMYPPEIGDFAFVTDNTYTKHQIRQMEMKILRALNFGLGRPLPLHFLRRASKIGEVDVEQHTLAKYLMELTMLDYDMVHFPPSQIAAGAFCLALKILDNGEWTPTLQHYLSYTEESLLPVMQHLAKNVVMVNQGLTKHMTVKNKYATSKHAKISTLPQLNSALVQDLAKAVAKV
Procedure: (§1) Recombinant CDK1- and CycB-GST fusion proteins, purified from baculovirus-infected insect cells (Sf9), were purchased from ProQinase GmbH, Freiburg. The histone IIIS used as kinase substrate can be purchased from Sigma. CDK1/CycB (200 ng/measurement point) was incubated in the presence of various concentrations of test substances (0 μM, and within the range 0.01-100 μM) in assay buffer [50 mM Tris/HCl pH 8.0, 10 mM MgCl2, 0.1 mM Na ortho-vanadate, 1.0 mM dithiothreitol, 0.5 μM ATP, 10 μg/measurement point histone IIIS, 0.2 μCi/measurement point ^33P-gamma-ATP, 0.05% NP40, 1.25% dimethyl sulphoxide] at 22° C. for 10 min. The reaction was stopped by adding EDTA solution (250 mM, pH 8.0, 15 μl/measurement point).
15 μl of each reaction mixture were loaded onto P30 filter strips (from Wallac), and non-incorporated ^33P-ATP was removed by washing the filter strips three times in 0.5% strength phosphoric acid for 10 min each time. After the filter strips had been dried at 70° C. for 1 hour, the filter strips were covered with scintillator strips (MeltiLex™ A, from Wallac) and baked at 90° C. for 1 hour. The amount of incorporated ^33P (substrate phosphorylation) was determined by scintillation measurement in a gamma radiation counter (Wallac).

CDK2/CycE = molecular target: T3, CDK2/CycE (Homo sapiens, UniProt P24941); test: CDK2/CycE kinase assay; assay type: biochemical; settings: 0.5 μM ATP, histone IIIS, 22° C., 10 min
T3 construct: GST; purchased ProQinase GmbH, Freiburg; host or cells: baculovirus-infected insect cells (Sf9)
Procedure: Recombinant CDK2- and CycE-GST fusion proteins, purified from baculovirus-infected insect cells (Sf9), were purchased from ProQinase GmbH, Freiburg. The histone IIIS used as kinase substrate was purchased from Sigma.
as §1, with “CDK2/CycE (50” for “Recombinant CDK1- and CycB-GST fusion proteins, purified from baculovirus-infected insect cells (Sf9), were purchased from ProQinase GmbH, Freiburg. The histone IIIS used as kinase substrate can be purchased from Sigma. CDK1/CycB (200”
15 μl of each reaction mixture were loaded onto P30 filter strips (from Wallac), and non-incorporated ^33P-ATP was removed by washing the filter strips three times in 0.5% strength phosphoric acid for 10 min each time.
After the filter strips had been dried at 70° C. for 1 hour, the filter strips were covered with scintillator strips (MeltiLex™ A, from Wallac) and baked at 90° C. for 1 hour. The amount of incorporated ^33P (substrate phosphorylation) was determined by scintillation measurement in a gamma radiation counter (Wallac).

KDR (VEGFR2) = molecular target: T4, KDR (VEGFR2) (Homo sapiens, UniProt P35968); test: KDR kinase assay; assay type: biochemical; settings: 10 μM ATP, 22° C., 45 min, HTRF
T4 construct: made in house; host or cells: E. coli
T4 sequence (P35968 20-1356, species assumed): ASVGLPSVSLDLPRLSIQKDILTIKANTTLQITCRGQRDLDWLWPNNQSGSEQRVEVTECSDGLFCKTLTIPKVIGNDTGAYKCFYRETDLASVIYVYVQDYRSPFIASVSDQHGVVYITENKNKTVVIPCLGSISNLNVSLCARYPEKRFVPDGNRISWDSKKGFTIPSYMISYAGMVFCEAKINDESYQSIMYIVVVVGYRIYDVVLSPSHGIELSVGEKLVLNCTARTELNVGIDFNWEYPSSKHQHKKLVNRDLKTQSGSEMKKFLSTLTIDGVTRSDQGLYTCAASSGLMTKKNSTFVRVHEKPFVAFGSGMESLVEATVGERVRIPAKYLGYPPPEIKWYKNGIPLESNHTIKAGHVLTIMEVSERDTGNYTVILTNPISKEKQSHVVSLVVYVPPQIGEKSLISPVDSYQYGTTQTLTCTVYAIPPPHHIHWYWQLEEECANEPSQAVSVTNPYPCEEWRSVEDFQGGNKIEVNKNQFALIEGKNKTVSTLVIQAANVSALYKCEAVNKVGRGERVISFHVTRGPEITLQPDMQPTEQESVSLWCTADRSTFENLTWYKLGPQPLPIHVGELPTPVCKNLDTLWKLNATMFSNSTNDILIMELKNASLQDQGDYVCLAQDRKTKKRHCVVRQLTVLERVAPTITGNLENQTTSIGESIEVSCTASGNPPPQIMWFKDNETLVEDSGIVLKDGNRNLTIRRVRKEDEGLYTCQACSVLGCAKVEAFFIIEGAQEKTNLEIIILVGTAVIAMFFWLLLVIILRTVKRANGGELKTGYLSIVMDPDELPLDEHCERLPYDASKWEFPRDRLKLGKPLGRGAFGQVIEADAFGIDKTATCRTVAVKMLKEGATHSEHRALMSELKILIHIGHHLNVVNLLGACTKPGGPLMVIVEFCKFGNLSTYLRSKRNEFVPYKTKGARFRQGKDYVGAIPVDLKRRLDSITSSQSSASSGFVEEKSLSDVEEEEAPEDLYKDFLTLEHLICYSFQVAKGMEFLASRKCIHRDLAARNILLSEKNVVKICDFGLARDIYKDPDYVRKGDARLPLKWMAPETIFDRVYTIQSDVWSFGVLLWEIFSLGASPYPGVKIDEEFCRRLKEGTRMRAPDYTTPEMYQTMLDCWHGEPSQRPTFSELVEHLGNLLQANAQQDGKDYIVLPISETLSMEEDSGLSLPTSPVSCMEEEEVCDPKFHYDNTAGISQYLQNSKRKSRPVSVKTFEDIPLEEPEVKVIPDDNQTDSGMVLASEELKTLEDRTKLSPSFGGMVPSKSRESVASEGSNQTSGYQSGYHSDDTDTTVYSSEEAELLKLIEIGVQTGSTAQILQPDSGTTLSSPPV
Procedure: Recombinant KDR protein was expressed in E. coli and then purified. The kinase substrate used was the biotinylated peptide having the amino acid sequence biotin-DFGLARDMYDKEYYSVG, which was purchased from Biosynthan. KDR [test volume 5 μl] was incubated in the presence of various concentrations of test substances (0 μM, and 10 measurement points within the range 0.001-20 μM in duplicate) in assay buffer [50 mM HEPES pH 7.0, 25.0 mM MgCl2, […], 0.1 mM Na ortho-vanadate, 1.0 mM dithiothreitol, 0.001% NP40, 10 μM ATP, 0.03 μM substrate peptide […], 1.0% dimethyl sulphoxide] at 22° C. for 45 min. The reaction was stopped by adding 5 μl of an EDTA/detection solution [50 mM HEPES pH 7.5, 125 mM EDTA, 0.2% BSA, 0.1 μM streptavidin-XLent (from CisBio), 2 nM PT66-Eu (from PerkinElmer)]. The fluorescence emission at 620 nm and 665 nm after excitation with light of the wavelength 350 nm was measured in a Rubystar HTRF instrument from BMG Labsystems.
The measured data (ratio of emission 665 divided by emission 620 multiplied by 10 000) were normalized to 0% inhibition (enzyme reaction without inhibitor) and 100% inhibition (all assay components apart from enzyme). The IC50 values were determined by means of a 4-parameter fit using the company's own software.

MCF7 breast tumour cells = test: MCF7 proliferation assay; assay type: cell-based, human; settings: for IC50: Homo sapiens, MCF7, 96 h, 4 days incubation, crystal violet staining
Procedure: Cultivated human MCF7 breast tumour cells (ATCC HTB-22) were plated out in a density of 5000 cells/measurement point in 200 μl of growth medium (RPMI1640, 10% foetal calf serum, 2 mU/mL insulin, 0.1 nM oestradiol) in a 96-well multititre plate. After 24 hours, the cells from a plate (zero plate) were stained with crystal violet (see below), while the medium in the other plates was replaced by fresh culture medium (200 μl) to which the test substances had been added in various concentrations (0 μM, and in the range 0.1-30 μM; the final concentration of the solvent dimethyl sulphoxide was 0.5%). The cells were incubated in the presence of the test substances for 4 days. The cell proliferation was determined by staining the cells with crystal violet: the cells were fixed by adding 20 μl/measurement point of an 11% strength glutaraldehyde solution at room temperature for 15 min. After the fixed cells had been washed three times with water, the plates were dried at room temperature. The cells were stained by adding 100 μl/measurement point of a 0.1% strength crystal violet solution (pH adjusted to pH 3 by adding acetic acid). After the stained cells had been washed three times with water, the plates were dried at room temperature. The dye was dissolved by adding 100 μl/measurement point of a 10% strength acetic acid solution, and the extinction was determined by photometry at a wavelength of 595 nm. The percentage change in cell growth was calculated by normalizing the measurements to the extinctions of the zero point plate (=0%) and the extinction of the untreated (0 μM) cells (=100%). The IC50 values were determined by means of a 4-parameter fit using the company's own software.

Structure (SMILES)	IC50 (Aurora-C)	IC50 (CDK1/CycB)	IC50 (CDK2/CycE)	IC50 (KDR (VEGFR2))	IC50 (MCF7 breast tumour cells)	inhibition of Aurora C kinase (in words) (Aurora-C; summary of Tab. 1)	antiproliferative activity, MCF7 (in words) (MCF7 breast tumour cells; summary of Tab. 2)
C[C@@H](Nc1nc(Nc2ccc(S(C)=NS(C)(=O)=O)cc2)ncc1Br)C(C)(C)O (mixture of isomers) [Example 18, (RS)—S-{4-[(5-Bromo-4-{[(R)-2-hydroxy-1,2-dimethylpropyl]amino}pyrimidin-2-yl)amino]phenyl}-N-mesyl-S-methylsulphimide]	400 nM	50 nM	6 nM	35 nM	170 nM		
C[C@@H](Nc1nc(Nc2ccc(S(C)=NS(=O)(=O)Cc3ccccc3)cc2)ncc1Br)C(C)(C)O (mixture of isomers) [Example 13, (RS)—N—(Benzylsulphonyl)-S-{4-[(5-bromo-4-{[(R)-2-hydroxy-1,2-dimethylpropyl]-amino}pyrimidin-2-yl)amino]phenyl}-S-methylsulphimide]	660 nM	140 nM	28 nM	15 nM	110 nM		excellent antiproliferative activity

Further molecules by falling IC50 (Aurora-C), results first:

IC50 (Aurora-C)	IC50 (CDK1/CycB)	IC50 (CDK2/CycE)	IC50 (KDR (VEGFR2))	IC50 (MCF7 breast tumour cells)	inhibition of Aurora C kinase (in words) (Aurora-C; summary of Tab. 1)	Structure (SMILES)	antiproliferative activity, MCF7 (in words) (MCF7 breast tumour cells; summary of Tab. 2)
390 nM	36 nM	12 nM	49 nM	310 nM		CCCS(=O)(=O)N=S(C)c1ccc(Nc2ncc(Br)c(N[C@H](C)C(C)(C)O)n2)cc1 (mixture of isomers) [Example 21, (RS)—S-{4-[(5-Bromo-4-{[(R)-2-hydroxy-1,2-dimethylpropyl]amino}pyrimidin-2-yl)amino]phenyl}-S-methyl-N-(propylsulphonyl)sulphimide]	
360 nM	620 nM	99 nM	22 nM	900 nM	inhibits	Cc1ccc(S(=O)(=O)N=S(C)c2ccc(Nc3ncc(Br)c(N[C@H](C)CO)n3)cc2)cc1 (mixture of isomers) [Example 8, (RS)—S-{4-[(5-Bromo-4-{[(R)-2-hydroxy-1-methylethyl]amino}pyrimidin-2-yl)-amino]phenyl}-S-methyl-N-(tolylsulphonyl)sulphimide]	
250 nM	31 nM	10 nM	35 nM	350 nM		CCS(=O)(=O)N=S(C)c1ccc(Nc2ncc(Br)c(N[C@H](C)C(C)(C)O)n2)cc1 (mixture of isomers) [Example 20, (RS)—S-{4-[(5-Bromo-4-{[(R)-2-hydroxy-1,2-dimethylpropyl]amino}pyrimidin-2-yl)amino]phenyl}-N-(ethylsulphonyl)-S-methylsulphimide]	
